Values quoted from earlier work, collected in patent US20090285840A1, “METHODS FOR TREATING PATHOLOGICAL NEOVASCULARIZATION” (New York Society for the Ruptured and Crippled Maintaining …, priority 2008, published 2009).

Test system: human ADAM9 mRNA
Set-up: concentration or dose not given beside the values
Settings: percentage inhibition data reported in US 2004/0092466, Example 15; target SEQ ID NO 94; cited from earlier work

| Substance | % INHIB [%] |
| --- | --- |
| 23 (CCTCTTCATCCTTTGCAGTT; listed as DNA, chemistry not given here) [compound 23] | 84 |
| 24 (GTTTCCATTGGTCCAAATCT; listed as DNA, chemistry not given here) [compound 24] | 77 |
| 25 (CAAGATTATGACCCAATTCA; listed as DNA, chemistry not given here) [compound 25] | 69 |
| 26 (GAATATTAAGAAGGCAGTTT; listed as DNA, chemistry not given here) [compound 26] | 27 |
| 27 (CTGCTTTATTATAGCCATGA; listed as DNA, chemistry not given here) [compound 27] | 85 |
| 28 (ATGACTGAATAAGACTTATT; listed as DNA, chemistry not given here) [compound 28] | 68 |
| 29 (TACATTAATGATAACTAAGG; listed as DNA, chemistry not given here) [compound 29] | 68 |
| 30 (AAGATTTTATAATTGCTCCT; listed as DNA, chemistry not given here) [compound 30] | 71 |
| 31 (CGATAAATGATGTGCTCAAA; listed as DNA, chemistry not given here) [compound 31] | 36 |
| 32 (CAGTGATTTGTCCAAACACA; listed as DNA, chemistry not given here) [compound 32] | 30 |
| 33 (ATTCATTCCAAGATTATGAC; listed as DNA, chemistry not given here) [compound 33] | 75 |
| 34 (TTAATAGCAAGCTTTGAAAG; listed as DNA, chemistry not given here) [compound 34] | 68 |
| 35 (GGGTCTGTGGCAAGACAGCT; listed as DNA, chemistry not given here) [compound 35] | 65 |
| 36 (TCTTTGCTCCACAGGAACAA; listed as DNA, chemistry not given here) [compound 36] | 77 |
| 37 (CAATGGATGAATTATGAACT; listed as DNA, chemistry not given here) [compound 37] | 62 |
| 38 (TCCGTATCCTTTAGTCTCAC; listed as DNA, chemistry not given here) [compound 38] | 80 |
| 39 (TTCCTTCTTTCTCCAGCCTA; listed as DNA, chemistry not given here) [compound 39] | 81 |
| 40 (GTGAGGGAACTATATAAAGG; listed as DNA, chemistry not given here) [compound 40] | 66 |
| 41 (AGGAATTAAGTTTCCCTGAG; listed as DNA, chemistry not given here) [compound 41] | 74 |

| Substance | % INHIB [%] |
| --- | --- |
| 42 (AAAATTTTACGATCCATACC; listed as DNA, chemistry not given here) [compound 42] | 72 |
| 43 (CTGGAACATCTGATCCTAGC; listed as DNA, chemistry not given here) [compound 43] | 77 |
| 44 (CAAATGTCTCCACAGTGATT; listed as DNA, chemistry not given here) [compound 44] | 79 |
| 45 (GCTATTGTGAACGAATGTCA; listed as DNA, chemistry not given here) [compound 45] | 86 |
| 46 (CAAGATTCTAGAGTATGATG; listed as DNA, chemistry not given here) [compound 46] | 85 |
| 47 (ATCATGTCATACCTTTCCTT; listed as DNA, chemistry not given here) [compound 47] | 81 |
| 48 (GGGAGGCTCTTCCTCTTCAT; listed as DNA, chemistry not given here) [compound 48] | 55 |
| 49 (ACTGAAGCTTTCCACACAAA; listed as DNA, chemistry not given here) [compound 49] | 52 |
| 50 (TCCCACAAATGCCATTCCTG; listed as DNA, chemistry not given here) [compound 50] | 78 |
| 51 (AGAAAACCATTTCTTCCTTC; listed as DNA, chemistry not given here) [compound 51] | 75 |
| 52 (ATTATTGGCAGCTGATTAGT; listed as DNA, chemistry not given here) [compound 52] | 79 |
| 53 (GCACCACATTTTGTGCCTTC; listed as DNA, chemistry not given here) [compound 53] | 74 |
| 54 (CTGATTAGTCAGTTTTCACA; listed as DNA, chemistry not given here) [compound 54] | 85 |
| 55 (TCAATGCAGTATTCATTTCA; listed as DNA, chemistry not given here) [compound 55] | 49 |
| 56 (AAGAAGACCAGAAGTCCGTC; listed as DNA, chemistry not given here) [compound 56] | 74 |
| 57 (ATTCCTTTGGAGTACCACAG; listed as DNA, chemistry not given here) [compound 57] | 81 |
| 58 (GGTATCTCTTGTACATTCTC; listed as DNA, chemistry not given here) [compound 58] | 18 |
| 59 (GGGAACTGCTGAGGTTGCTT; listed as DNA, chemistry not given here) [compound 59] | 46 |
